Results: ChEMBL document CHEMBL1933055, “Discovery of bacterial NAD⁺-dependent DNA ligase inhibitors: improvements in clearance of adenosine series” (Bioorg Med Chem Lett, 2012)
In brackets after ≈: the same amount, converted by molar mass.

Columns and labels:
[1] = Plasma clearance in rat at 3 mg/kg, iv; assay type: ADME, organism-based; parameters: dose 3 mg/kg, route intravenous
Streptococcus pneumoniae [2] = assay: Antimicrobial activity against Streptococcus pneumoniae D39; assay type: functional
[3] = Renal clearance in iv dosed rat; assay type: ADME, organism-based, Kidney; details: in vivo
Streptococcus pneumoniae [4] = assay: Antibacterial activity against Streptococcus pneumoniae; assay type: functional
[5] = Lipophilicity, log D of the compound; details: octanol/water
[6] = Total clearance in iv dosed rat; assay type: ADME, organism-based; details: in vivo
[7] = Solubility of the compound; assay type: physicochemical
[8] = Fraction unbound in human plasma; assay type: ADME, cell-free
Rattus norvegicus = assay: Hepatic blood flow in iv dosed rat; assay type: ADME, organism-based, Liver; details: in vivo
[9] = Oral bioavailability in rat; assay type: ADME, organism-based; details: in vivo
[10] = Clearance in iv dosed dog; assay type: ADME, organism-based, Canis lupus familiaris; details: in vivo
Canis familiaris = assay: Hepatic blood flow in iv dosed dog; assay type: ADME, organism-based, Canis lupus familiaris, Liver; details: in vivo
[11] = Oral bioavailability in dog; assay type: ADME, organism-based, Canis lupus familiaris; details: in vivo

| SMILES | clearance [1] | MIC (Streptococcus pneumoniae [2]) | CL renal [3] | MIC (Streptococcus pneumoniae [4]) | logD [5] | clearance [6] | other results |
| --- | --- | --- | --- | --- | --- | --- | --- |
| Nc1nc(OC2CCCC2)nc2c1ncn2[C@@H]1O[C@H](CF)[C@@H](O)[C@H]1O | 83 mL/min/kg | 4 µg/mL (≈ 11.3 µM) | – | – | – | – | – |
| C[C@H]1O[C@@H](n2cnc3c(N)nc(OC4CCCC4)nc32)[C@H](O)[C@@H]1O | 43 mL/min/kg | 2 µg/mL (≈ 5.96 µM) | – | – | – | – | – |
| Nc1nc(OCC2CCC2)nc2c1ncn2[C@@H]1O[C@H](CF)[C@@H](O)[C@H]1O | 73 mL/min/kg | 2 µg/mL (≈ 5.66 µM) | – | – | – | – | – |
| C[C@H]1O[C@@H](n2cnc3c(N)nc(O[C@H]4CC[C@H](C)CC4)nc32)[C@H](O)[C@@H]1O | 89 mL/min/kg | 1 µg/mL (≈ 2.75 µM) | – | – | – | – | – |
| C[C@H]1O[C@@H](n2cnc3c(N)nc(OCC4CC45CC5)nc32)[C@H](O)[C@@H]1O (some centres not stated) | 96 mL/min/kg | 1 µg/mL (≈ 2.88 µM) | – | – | – | – | – |
| C[C@H]1O[C@@H](n2cnc3c(N)nc(OC4C[C@@H]5C[C@@H]5C4)nc32)[C@H](O)[C@@H]1O (some centres not stated) | 50 mL/min/kg | 2 µg/mL (≈ 5.76 µM) | – | – | – | – | – |
| C[C@H]1O[C@@H](n2cnc3c(N)nc(OC4CCOC4)nc32)[C@H](O)[C@@H]1O (some centres not stated) | – | – | 13 mL/min/kg | 16 µg/mL (≈ 47.4 µM) | -0.06 | 67 mL/min/kg | – |
| Nc1nc(OCC2CC2)nc2c1ncn2[C@@H]1O[C@H](CF)[C@@H](O)[C@H]1O | – | – | 13 mL/min/kg | 8 µg/mL (≈ 23.6 µM) | – | 49 mL/min/kg | – |
| CC1CC1COc1nc(N)c2ncn([C@@H]3O[C@H](CF)[C@@H](O)[C@H]3O)c2n1 (some centres not stated) | – | – | 11 mL/min/kg | 4 µg/mL (≈ 11.3 µM) | – | 115 mL/min/kg | – |
| C[C@H]1O[C@@H](n2cnc3c(N)nc(O[C@H]4CC[C@H](C(F)(F)F)CC4)nc32)[C@H](O)[C@@H]1O | – | – | 2 mL/min/kg | 2 µg/mL (≈ 4.79 µM) | 2.2 | 27 mL/min/kg | solubility [7]: 800 µM (≈ 334 µg/mL); fraction unbound [8]: 0.2; QH (Rattus norvegicus): 39%; bioavailability [9]: 86%; clearance [10]: 7.7 mL/min/kg; QH (Canis familiaris): 20%; bioavailability [11]: 88% |
| C[C@H]1O[C@@H](n2cnc3c(N)nc(OC4CCC(F)(F)CC4)nc32)[C@H](O)[C@@H]1O | – | – | 15 mL/min/kg | 8 µg/mL (≈ 20.8 µM) | – | 33 mL/min/kg | – |
| C[C@H]1O[C@@H](n2cnc3c(N)nc(OC(C4CC4)C(F)(F)F)nc32)[C@H](O)[C@@H]1O (some centres not stated) | – | – | 5 mL/min/kg | 8 µg/mL (≈ 20.5 µM) | 1.8 | 73 mL/min/kg | – |
| C[C@H]1O[C@@H](n2cnc3c(N)nc(OCC4CC(F)(F)C4(F)F)nc32)[C@H](O)[C@@H]1O (some centres not stated) | – | – | 17 mL/min/kg | 4 µg/mL (≈ 9.82 µM) | 1.4 | 85 mL/min/kg | – |
| C[C@H]1O[C@@H](n2cnc3c(N)nc(OC4CC(F)(F)C4(F)F)nc32)[C@H](O)[C@@H]1O (some centres not stated) | – | – | 16 mL/min/kg | 16 µg/mL (≈ 40.7 µM) | 1.3 | 23 mL/min/kg | – |
| C[C@H]1O[C@@H](n2cnc3c(N)nc(OCC4CCC(F)(F)CC4)nc32)[C@H](O)[C@@H]1O | – | – | 8 mL/min/kg | 16 µg/mL (≈ 40.1 µM) | 1.7 | 58 mL/min/kg | – |
